Consider 26 molecules from US9249145B2, “Heterocyclic derivatives of pyrazol-4-yl-pyrrolo[2,3-d]pyrimidines as janus kinase inhibitors” (Incyte Holdings Corporation, priority 2009, dated 2016).

Assay [1] deals with T1, human JAK1 (a.a. 837-1142) (Homo sapiens, UniProt P23458).
T1 construct: The catalytic domains of human JAK1 (a.a. 837-1142); His tag (N); made in house; host or cells: insect cells (baculovirus)
Put plainly: In vitro JAK kinase assay (HTRF, phosphorylation of biotinylated peptide), JAK1. The settings on record: 1 mM ATP; Examples 92-162; read-out: JAK1 IC50 (nM) @ 1 mM ATP. It is filed as biochemical. The method, boiled down:
(§1)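 His-tagged catalytic domains expressed in baculovirus/insect cells; biotinylated peptide (500 nM) phosphorylation in 50 mM Tris pH 7.8, 100 mM NaCl, 5 mM DTT, 0.01% BSA, 1 h room temperature. ATP at Km (JAK1 90 μM, JAK2 30 μM) or 1 mM. EDTA stop, Eu-Py20/SA-APC HTRF read; IC50.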
(In general: TR-FRET usually uses a lanthanide donor and a delayed reading to cut background.)

The target of assay [2] is T2, Jak2 (a.a. 828-1132) (Homo sapiens, UniProt O60674).
T2 construct: Jak2 (a.a. 828-1132); His tag (N); made in house; host or cells: insect cells (baculovirus)
Put plainly: In vitro JAK kinase assay (HTRF, phosphorylation of biotinylated peptide), JAK2. It is filed as biochemical. The settings on record: 1 mM ATP; Examples 92-162; read-out: JAK2 IC50 (nM) @ 1 mM ATP. The gist of the method: as §1

Where only a bound is given, the exact number is not on record here.

T2 sequence (O60674 828-1132): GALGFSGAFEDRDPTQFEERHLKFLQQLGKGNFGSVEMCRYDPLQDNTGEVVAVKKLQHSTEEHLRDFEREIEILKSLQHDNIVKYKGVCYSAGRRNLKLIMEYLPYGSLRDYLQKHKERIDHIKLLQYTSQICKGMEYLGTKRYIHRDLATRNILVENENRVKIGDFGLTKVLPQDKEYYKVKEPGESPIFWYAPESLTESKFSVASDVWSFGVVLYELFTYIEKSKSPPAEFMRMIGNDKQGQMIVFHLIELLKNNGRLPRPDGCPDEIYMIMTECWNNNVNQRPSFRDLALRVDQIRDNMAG
T1 sequence (P23458 849-1154): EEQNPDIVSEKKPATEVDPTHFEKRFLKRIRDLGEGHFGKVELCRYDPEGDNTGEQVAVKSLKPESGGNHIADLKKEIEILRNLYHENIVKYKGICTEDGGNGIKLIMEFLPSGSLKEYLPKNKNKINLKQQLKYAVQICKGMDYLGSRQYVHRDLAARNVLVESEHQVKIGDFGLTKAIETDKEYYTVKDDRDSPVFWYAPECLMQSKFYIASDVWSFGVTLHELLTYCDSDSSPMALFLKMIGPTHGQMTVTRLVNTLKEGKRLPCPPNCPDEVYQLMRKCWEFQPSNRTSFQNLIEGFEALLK

Consider `CCC(CN1CCN(C(=O)c2ccc(Cl)cc2F)CC1)n1cc(-c2ncnc3[nH]ccc23)cn1` (stereo not shown) [Example 124, (4-(2-(4-(7H-pyrrolo[2,3-d]pyrimidin-4-yl)-1H-pyrazol-1-yl)butyl)piperazin-1-yl)(4-chloro-2-fluorophenyl)methanone], for which the IC50 (as a rule, the concentration at which inhibition is half-maximal) in assay [1] is below 20 nM; in assay [2], 20 to 50 nM.
With `CCC(CN1CCN(C(=O)c2ccc(F)cc2OC)CC1)n1cc(-c2ncnc3[nH]ccc23)cn1` (stereo not shown) [Example 125, (4-(2-(4-(7H-pyrrolo[2,3-d]pyrimidin-4-yl)-1H-pyrazol-1-yl)butyl)piperazin-1-yl)(4-fluoro-2-methoxyphenyl)methanone], the values for the IC50 in assay [1] and in assay [2] were 20 to 50 nM and above 100 nM, respectively.
The matching figures for `CCC(CN1CCN(C(=O)c2cccs2)CC1)n1cc(-c2ncnc3[nH]ccc23)cn1` (stereo not shown) [Example 126, (4-(2-(4-(7H-pyrrolo[2,3-d]pyrimidin-4-yl)-1H-pyrazol-1-yl)butyl)piperazin-1-yl)(thiophen-2-yl)methanone]: 20 to 50 nM and above 100 nM.
In the same order, the values of `CCC(CN1CCN(S(=O)(=O)c2ccccc2)CC1)n1cc(-c2ncnc3[nH]ccc23)cn1` (stereo not shown) [Example 127, 4-(1-(1-(4-(phenylsulfonyl)piperazin-1-yl)butan-2-yl)-1H-pyrazol-4-yl)-7H-pyrrolo[2,3-d]pyrimidine] are below 20 nM and 20 to 50 nM.
The matching figures for `CCC(CN1CCN(S(=O)(=O)c2ccccc2C#N)CC1)n1cc(-c2ncnc3[nH]ccc23)cn1` (stereo not shown) [Example 128, 2-(4-(2-(4-(7H-pyrrolo[2,3-d]pyrimidin-4-yl)-1H-pyrazol-1-yl)butyl)piperazin-1-ylsulfonyl)benzonitrile]: below 20 nM and 50 to 100 nM.
`CCC(CN1CCN(S(=O)(=O)c2ccc(C#N)cc2)CC1)n1cc(-c2ncnc3[nH]ccc23)cn1` (stereo not shown) [Example 129, 4-(4-(2-(4-(7H-pyrrolo[2,3-d]pyrimidin-4-yl)-1H-pyrazol-1-yl)butyl)piperazin-1-ylsulfonyl)benzonitrile]: the IC50 in assay [1] was in the range of 20 to 50 nM; in assay [2], 50 to 100 nM.
The matching figures for `CCC(CN1CCN(S(=O)(=O)c2ccccc2C(F)(F)F)CC1)n1cc(-c2ncnc3[nH]ccc23)cn1` (stereo not shown) [Example 130, 4-(1-(1-(4-(2-(trifluoromethyl)phenylsulfonyl)piperazin-1-yl)butan-2-yl)-1H-pyrazol-4-yl)-7H-pyrrolo[2,3-d]pyrimidine]: below 20 nM and 50 to 100 nM.
In the same order, the values of `CCC(CN1CCN(S(=O)(=O)c2cccc(C)n2)CC1)n1cc(-c2ncnc3[nH]ccc23)cn1` (stereo not shown) [Example 131, 4-(1-(1-(4-(6-methylpyridin-2-ylsulfonyl)piperazin-1-yl)butan-2-yl)-1H-pyrazol-4-yl)-7H-pyrrolo[2,3-d]pyrimidine] are below 20 nM and 20 to 50 nM.
The matching figures for `CCC(CN1CCN(S(=O)(=O)c2ccccc2Cl)CC1)n1cc(-c2ncnc3[nH]ccc23)cn1` (stereo not shown) [Example 132, 4-(1-(1-(4-(2-chlorophenylsulfonyl)piperazin-1-yl)butan-2-yl)-1H-pyrazol-4-yl)-7H-pyrrolo[2,3-d]pyrimidine]: below 20 nM and 20 to 50 nM.
With `CCC(CN1CCN(S(=O)(=O)c2cn(C)nc2C(F)(F)F)CC1)n1cc(-c2ncnc3[nH]ccc23)cn1` (stereo not shown) [Example 133, 4-(1-(1-(4-(1-methyl-3-(trifluoromethyl)-1H-pyrazol-4-ylsulfonyl)piperazin-1-yl)butan-2-yl)-1H-pyrazol-4-yl)-7H-pyrrolo[2,3-d]pyrimidine], the figures for the IC50 in assay [1] and in assay [2] were 20 to 50 nM and above 100 nM, respectively.
Take `CCC(CN1CCN(S(=O)(=O)c2cccs2)CC1)n1cc(-c2ncnc3[nH]ccc23)cn1` (stereo not shown) [Example 134, 4-(1-(1-(4-(thiophen-2-ylsulfonyl)piperazin-1-yl)butan-2-yl)-1H-pyrazol-4-yl)-7H-pyrrolo[2,3-d]pyrimidine]: the IC50 is below 20 nM in assay [1] and 20 to 50 nM in assay [2].
The matching figures for `CCC(CN1CCN(S(=O)(=O)c2sccc2Cl)CC1)n1cc(-c2ncnc3[nH]ccc23)cn1` (stereo not shown) [Example 135, 4-(1-(1-(4-(3-chlorothiophen-2-ylsulfonyl)piperazin-1-yl)butan-2-yl)-1H-pyrazol-4-yl)-7H-pyrrolo[2,3-d]pyrimidine]: below 20 nM and 20 to 50 nM.
In the same order, the values of `CCC(CN1CCN(S(=O)(=O)c2cccc(F)c2)CC1)n1cc(-c2ncnc3[nH]ccc23)cn1` (stereo not shown) [Example 136, 4-(1-(1-(4-(3-fluorophenylsulfonyl)piperazin-1-yl)butan-2-yl)-1H-pyrazol-4-yl)-7H-pyrrolo[2,3-d]pyrimidine] are below 20 nM and 20 to 50 nM.
The matching figures for `CCC(CN1CCN(S(=O)(=O)c2ccc(F)cc2)CC1)n1cc(-c2ncnc3[nH]ccc23)cn1` (stereo not shown) [Example 137, 4-(1-(1-(4-(4-fluorophenylsulfonyl)piperazin-1-yl)butan-2-yl)-1H-pyrazol-4-yl)-7H-pyrrolo[2,3-d]pyrimidine]: below 20 nM and 50 to 100 nM.
For the molecule `CCC(CN1CCN(S(=O)(=O)c2cccc(C#N)c2)CC1)n1cc(-c2ncnc3[nH]ccc23)cn1` (stereo not shown) [Example 139, 3-(4-(2-(4-(7H-pyrrolo[2,3-d]pyrimidin-4-yl)-1H-pyrazol-1-yl)butyl)piperazin-1-ylsulfonyl)benzonitrile], the values for the IC50 in assay [1] and in assay [2] were 20 to 50 nM and above 100 nM, respectively.
In the same order, the values of `CCC(CN1CCN(S(=O)(=O)c2ccc(F)cc2F)CC1)n1cc(-c2ncnc3[nH]ccc23)cn1` (stereo not shown) [Example 140, 4-(1-(1-(4-(2,4-difluorophenylsulfonyl)piperazin-1-yl)butan-2-yl)-1H-pyrazol-4-yl)-7H-pyrrolo[2,3-d]pyrimidine] are below 20 nM and 50 to 100 nM.
In the same order, the values of `CCC(CN1CCN(S(=O)(=O)c2cc(F)ccc2F)CC1)n1cc(-c2ncnc3[nH]ccc23)cn1` (stereo not shown) [Example 141, 4-(1-(1-(4-(2,5-difluorophenylsulfonyl)piperazin-1-yl)butan-2-yl)-1H-pyrazol-4-yl)-7H-pyrrolo[2,3-d]pyrimidine] are below 20 nM and 50 to 100 nM.
In the same order, the values of `CCC(CN1CCN(S(=O)(=O)c2cc(F)cc(F)c2)CC1)n1cc(-c2ncnc3[nH]ccc23)cn1` (stereo not shown) [Example 142, 4-(1-(1-(4-(3,5-difluorophenylsulfonyl)piperazin-1-yl)butan-2-yl)-1H-pyrazol-4-yl)-7H-pyrrolo[2,3-d]pyrimidine] are below 20 nM and 50 to 100 nM.
`CCC(CN1CCN(S(=O)(=O)c2ccc(F)cc2C)CC1)n1cc(-c2ncnc3[nH]ccc23)cn1` (stereo not shown) [Example 143, 4-(1-(1-(4-(4-floro-2-methylphenylsulfonyl)piperazin-1-yl)butan-2-yl)-1H-pyrazol-4-yl)-7H-pyrrolo[2,3-d]pyrimidine]: the IC50 is below 20 nM in assay [1] and above 100 nM in assay [2].
The matching figures for `CCC(CN1CCN(S(=O)(=O)c2cn(C)c(C)n2)CC1)n1cc(-c2ncnc3[nH]ccc23)cn1` (stereo not shown) [Example 144, 4-(1-(1-(4-(1,2-dimethyl-1H-imidazol-4-ylsulfonyl)piperazin-1-yl)butan-2-yl)-1H-pyrazol-4-yl)-7H-pyrrolo[2,3-d]pyrimidine]: 20 to 50 nM and 50 to 100 nM.
`CCC(CN1CCN(S(=O)(=O)c2ccc(Br)s2)CC1)n1cc(-c2ncnc3[nH]ccc23)cn1` (stereo not shown) [Example 145, 4-(1-(1-(4-(5-bromothiophen-2-ylsulfonyl)piperazin-1-yl)butan-2-yl)-1H-pyrazol-4-yl)-7H-pyrrolo[2,3-d]pyrimidine]: the IC50 in assay [1] is below 20 nM; in assay [2], 20 to 50 nM.
Regarding `Cc1c(Nc2ccccc2)ncnc1N1CCC(C(CC#N)n2cc(-c3ncnc4[nH]ccc34)cn2)CC1` (stereo not shown) [Example 146, 3-[1-(6-anilino-5-methylpyrimidin-4-yl)piperidin-4-yl]-3-[4-(7H-pyrrolo[2,3-d]pyrimidin-4-yl)-1H-pyrazol-1-yl]propanenitrile], the IC50 is 20 to 50 nM in assay [1] and above 100 nM in assay [2].
In the same order, the values of `Cc1c(Nc2ccccc2F)ncnc1N1CCC(C(CC#N)n2cc(-c3ncnc4[nH]ccc34)cn2)CC1` (stereo not shown) [Example 147, 3-(4-(7H-pyrrolo[2,3-d]pyrimidin-4-yl)-1H-pyrazol-1-yl)-3-(1-(6-(2-fluorophenylamino)-5-methylpyrimidin-4-yl)piperidin-4-yl)propanenitrile] are below 20 nM and above 100 nM.
As for `Cc1c(Nc2cccc(F)c2)ncnc1N1CCC(C(CC#N)n2cc(-c3ncnc4[nH]ccc34)cn2)CC1` (stereo not shown) [Example 148, 3-(4-(7H-pyrrolo[2,3-d]pyrimidin-4-yl)-1H-pyrazol-1-yl)-3-(1-(6-(3-fluorophenylamino)-5-methylpyrimidin-4-yl)piperidin-4-yl)propanenitrile], the IC50 is below 20 nM in assay [1] and 50 to 100 nM in assay [2].
In the same order, the values of `Cc1c(Nc2cc(F)ccc2F)ncnc1N1CCC(C(CC#N)n2cc(-c3ncnc4[nH]ccc34)cn2)CC1` (stereo not shown) [Example 149, 3-(4-(7H-pyrrolo[2,3-d]pyrimidin-4-yl)-1H-pyrazol-1-yl)-3-(1-(6-(2,5-difluorophenylamino)-5-methylpyrimidin-4-yl)piperidin-4-yl)propanenitrile] are below 20 nM and above 100 nM.
The matching figures for `Cc1c(Nc2ccc(F)c(F)c2)ncnc1N1CCC(C(CC#N)n2cc(-c3ncnc4[nH]ccc34)cn2)CC1` (stereo not shown) [Example 150, 3-(4-(7H-pyrrolo[2,3-d]pyrimidin-4-yl)-1H-pyrazol-1-yl)-3-(1-(6-(3,4-difluorophenylamino)-5-methylpyrimidin-4-yl)piperidin-4-yl)propanenitrile]: below 20 nM and below 20 nM.
